Where two headings read alike, the source gives them in different places. One block for each compound: values may come before it.
Assays:
[1] = type: physicochemical; conditions: for crystal growth in the fertilizer solutions tested: review of table 2
Text: Crystal formation in a suspension concentrate is a complex phenomenon. It is believed that if the solubility of the suspended solid chemical is high in the medium, the suspension concentrate is prone to form crystals of the suspended solid chemical in storage. […] The concentrations of the solid pesticides used in this example were low (at a typical ready-to-apply concentration range). If a solid pesticide forms crystals in such a low concentration, it is not suitable for a ready-to-apply pesticide suspension and mostly likely will not be suitable for a more concentrated suspension in fertilizer. […] By “not suitable” is meant that although it may work to some extent, it is not a good candidate for the pesticide SC.
Samples were prepared by adding the components followed by hand-shaking.

[2] = Quick screening of crystal growth potential in fertilizer concentrates and water, solid pesticides containing a carboxylic acid group (Example 2); type: physicochemical; conditions: for suitability for suspension in fertilizer solutions: review of table 3
Procedure: Samples were prepared by adding the components followed by hand-shaking. Samples were placed at 0° C. and observation was made after 1 day, unless otherwise specified.

[3] = Study of additional surfactants in 10-34-0, 27-4-0 and diluted 10-34-0 fertilizers (Example 8); type: physicochemical
[4] = Stability of 50% clothianidin in 50% URAN 32 fertilizer (Example 6); type: physicochemical; conditions: 0.5 g in 100 g URAN 32 fertilizer solution
Procedure: 0.5 g Witcolate D-510 surfactant was added into 100 g URAN 32 fertilizer solution (50 wt % URAN 32 in water). […] Then 100 g clothianidin was added to the resulting solution and mixed well by hand-shaking. This sample was stable and had about 10% top clear with a smooth bottom suspension after 2 weeks at 40° C.
In other experiments, 0.3% of a pH adjusting agent (40 wt % Citric acid), was included in the SC sample (homogenized sample) and no noticeable effect was observed on stability. Viscosity measurements were made with a Brookfield viscometer at various speeds (rpm) at room temperature with a #64 spindle. This sample was very viscous but it was highly shear-thinning.

[5] = Storage stability of 40% clothianidin SC in 10-34-0 with wetting agent Witcolate D-510 (Example 5); type: physicochemical; conditions: clothianidin suspension in 10-34-0
Procedure: The test samples were prepared by adding 60 grams of 10-34-0 fertilizer (from Plant Food) to a bottle. Then various amounts of Witcolate D-510 (2-ethylhexyl sulfate) were added to the 10-34-0 fertilizer and mixed well. Finally, 40 grams of clothianidin (technical grade) was added to the mixture and mixed well by shaking by hand.

[6] = 1 wt % powder pesticide, 98 wt % 10-34-0, 1 wt % Witcolate D-510
[7] = 1 wt % powder pesticide, 98 wt % 40% AMS, 1 wt % Witcolate D-510
[8] = 1 wt % powder pesticide, 98 wt % URAN 32, 1 wt % Witcolate D-510
[9] = 1 wt % powder pesticide, 98 wt % Water, 1 wt % Witcolate D-510
[10] = powder pesticide (glyphosate acid 2, 2,4-D acid 1.3, others 1 wt %) in 10-34-0, no wetting agent
[11] = powder pesticide (glyphosate acid 2, 2,4-D acid 1.3, others 1 wt %) in 10-34-0, no wetting agent, 0° C., 1 day unless otherwise specified
[12] = powder pesticide (glyphosate acid 2, 2,4-D acid 1.3, others 1 wt %) in 40% AMS, no wetting agent
[13] = powder pesticide (glyphosate acid 2, 2,4-D acid 1.3, others 1 wt %) in 40% AMS, no wetting agent, 0° C., 1 day unless otherwise specified
[14] = powder pesticide (glyphosate acid 2, 2,4-D acid 1.3, others 1 wt %) in URAN 32, no wetting agent, 0° C., 1 day unless otherwise specified
[15] = powder pesticide (glyphosate acid 2, 2,4-D acid 1.3, others 1 wt %) in Water, no wetting agent
[16] = powder pesticide (glyphosate acid 2, 2,4-D acid 1.3, others 1 wt %) in Water, no wetting agent, 0° C., 1 day unless otherwise specified
[17] = 1 wt % powder pesticide in 99 wt % 10-34-0, no wetting agent
[18] = 1 wt % powder pesticide in 99 wt % 40% AMS, no wetting agent
[19] = 1 wt % powder pesticide in 99 wt % URAN 32, no wetting agent
[20] = 1 wt % powder pesticide in 99 wt % Water, no wetting agent
[21] = 30 wt % powder pesticide in 70 wt % 10-34-0, no wetting agent

Compound: Cc1c(COC(=O)[C@@H]2[C@H](/C=C(\Cl)C(F)(F)F)C2(C)C)cccc1-c1ccccc1 (racemic) [Bifenthrin]
- Comment: powder sank or floated [1, 6]: floated
- Comment: suitability [1, 6]: Suitable
- Comment: powder sank or floated [1, 7]: sank
- Comment: suitability [1, 7]: Suitable
- Comment: powder sank or floated [1, 8]: floated
- Comment: suitability [1, 8]: Suitable
- Comment: powder sank or floated [1, 9]: sank
- Comment: suitability [1, 9]: Suitable
- crystal growth in the fertilizer solutions tested [1]: did not have crystal growth

Compound: O=C(O)COc1ccc(Cl)cc1Cl [2,4-D acid]
- Comment: suitability [2, 10]: particles. Not suitable
- Comment: crystal growth or other change [2, 11]: Crystal growth between powder
- Comment: dissolution [2, 11]: Not dissolved
- Comment: powder sank or floated [2, 11]: Powder sank
- Comment: suitability [2, 12]: particles. Not suitable
- Comment: crystal growth or other change [2, 13]: Crystal growth between powder
- Comment: dissolution [2, 13]: Not dissolved
- Comment: powder sank or floated [2, 13]: Powder sank
- Comment: suitability ([2]; powder pesticide (glyphosate acid 2, 2,4-D acid 1.3, others 1 wt %) in URAN 32, no wetting agent): particles. Not suitable
- Comment: crystal growth or other change [2, 14]: Crystal growth between powder
- Comment: dissolution [2, 14]: Not dissolved
- Comment: powder sank or floated [2, 14]: Powder sank
- Comment: suitability [2, 15]: particles. Not suitable
- Comment: crystal growth or other change [2, 16]: Crystal growth between powder
- Comment: dissolution [2, 16]: Not dissolved
- Comment: powder sank or floated [2, 16]: Powder sank
- suitability for suspension in fertilizer solutions [2]: may not be suitable

- Surfactant Suitability ([3]; 27-4-0 99, surfactant 1 wt): Not suitable
- suitability for the fertilizers tested ([3]; review of table 10): not suitable
Compound: CCCCC(CC)COC(=O)CC(C(=O)OCC(CC)CCCC)S(=O)(=O)O.[Na] (stereo not shown) [Aerosol AOT-75, sodium bis (2-ethyl hexyl) sulfosuccinate]

Compound: CCNc1nc(Cl)nc(NC(C)C)n1 [Atrazine]
- Comment: powder sank or floated [1, 17]: floated
- Comment: suitability [1, 17]: Suitable
- Comment: suitability [1, 18]: Suitable
- Comment: powder sank or floated [1, 19]: floated
- Comment: suitability [1, 19]: Suitable
- Comment: suitability [1, 20]: Suitable
- Comment: powder sank or floated [1, 6]: floated
- Comment: suitability [1, 6]: Suitable
- Comment: powder sank or floated [1, 7]: floated
- Comment: suitability [1, 7]: Suitable
- Comment: powder sank or floated [1, 8]: floated
- Comment: suitability [1, 8]: Suitable
- Comment: powder sank or floated [1, 9]: sank
- Comment: suitability [1, 9]: Suitable
- crystal growth in the fertilizer solutions tested [1]: did not have crystal growth

Compound: COc1c(Cl)ccc(Cl)c1C(=O)O [Dicamba acid]
- Comment: suitability [2, 10]: Not suitable
- Comment: crystal growth or other change [2, 11]: Crystal formed at bottom at 0 C.
- Comment: crystal growth or other change [2, 13]: Oily drop formed at bottom.
- Comment: dissolution [2, 14]: Dissolved
- Comment: suitability [2, 15]: Not suitable
- Comment: crystal growth or other change [2, 16]: Crystal formed at 0 C. and
- suitability for suspension in fertilizer solutions [2]: may not be suitable

Compound: CN(C)C(=O)Nc1ccc(Cl)c(Cl)c1 [Diuron]
- Comment: powder sank or floated [1, 17]: sank and some floated.
- Comment: suitability [1, 17]: Suitable
- Comment: suitability [1, 18]: Suitable
- Comment: powder sank or floated [1, 19]: sank
- Comment: suitability [1, 19]: Suitable
- Comment: suitability [1, 20]: Suitable
- Comment: suitability [1, 6]: Suitable
- Comment: powder sank or floated [1, 7]: sank
- Comment: suitability [1, 7]: Suitable
- Comment: powder sank or floated [1, 8]: sank
- Comment: suitability [1, 8]: Suitable
- Comment: powder sank or floated [1, 9]: sank
- Comment: suitability [1, 9]: Suitable
- crystal growth in the fertilizer solutions tested [1]: did not have crystal growth

Compound: O=C(O)CNCP(=O)(O)O [Glyphosate acid]
- Comment: dissolution [2, 21]: Powder not dissolved. Powder
- Comment: suitability [2, 21]: at room temp. Not suitable
- Comment: crystal growth or other change ([2]; 30 wt % powder pesticide in 70 wt % 10-34-0, no wetting agent, at room temp): Crystal growth on container wall
- Comment: dissolution [2, 11]: Dissolved at room temp
- Comment: suitability [2, 12]: Not suitable
- Comment: dissolution [2, 13]: Dissolved
- Comment: crystal growth or other change [2, 16]: Crystal growth at room temp
- Comment: dissolution [2, 16]: Not dissolved
- suitability for suspension in fertilizer solutions [2]: may not be suitable

Compound: O=[N+]([O-])NC1=NCCN1Cc1ccc(Cl)nc1 [Imidaclopid]
- solubility in URAN 32 [1]: high solubility
- Comment: suitability [1, 17]: Suitable
- Comment: suitability [1, 18]: Suitable
- Comment: dissolution [1, 19]: Dissolved
- Comment: suitability [1, 19]: Not suitable
- Comment: suitability [1, 20]: Suitable
- Comment: suitability [1, 6]: Suitable
- Comment: powder sank or floated [1, 7]: sank
- Comment: suitability [1, 7]: Suitable
- Comment: dissolution [1, 8]: Dissolved
- Comment: suitability [1, 8]: Not suitable
- Comment: powder sank or floated [1, 9]: sank
- Comment: suitability [1, 9]: Suitable
- crystal growth in the fertilizer solutions tested [1]: did not have crystal growth

Compound: CCCCC(C#N)(Cn1cncn1)c1ccc(Cl)cc1 (stereo not shown) [Myclobutanil]
- Comment: powder sank or floated [1, 17]: floated
- Comment: suitability [1, 17]: Suitable
- Comment: powder sank or floated [1, 18]: sank
- Comment: suitability [1, 18]: Suitable
- Comment: powder sank or floated [1, 19]: floated
- Comment: suitability [1, 19]: Suitable
- Comment: powder sank or floated [1, 20]: sank
- Comment: suitability [1, 20]: Suitable
- Comment: powder sank or floated [1, 6]: floated
- Comment: suitability [1, 6]: Suitable
- Comment: powder sank or floated [1, 7]: floated
- Comment: suitability [1, 7]: Suitable
- Comment: powder sank or floated [1, 8]: floated
- Comment: suitability [1, 8]: Suitable
- Comment: powder sank or floated [1, 9]: sank
- Comment: suitability [1, 9]: Suitable
- crystal growth in the fertilizer solutions tested [1]: did not have crystal growth

- Appearance ([3]; 27-4-0 99.4, surfactant 0.6 wt): Clear
Compound: CCCCCCCCCCCC(=O)OCCOCCOCCOCCOCCOCCOCCOCCOCCOCCOCCOCCOCCOCCOCCOCCOCCOCCOCCOCCOCC(OCCOCCOCCOCCOCCOCCOCCOCCOCCOCCOCCOCCOCCOCCOCCOCCOCCOCCOCCOCCO)C1OCC(OCCOCCOCCOCCOCCOCCOCCOCCOCCOCCOCCOCCOCCOCCOCCOCCOCCOCCOCCOCCO)C1OCCOCCOCCOCCOCCOCCOCCOCCOCCOCCOCCOCCOCCOCCOCCOCCOCCOCCOCCOCCO (stereo not shown) [Tween 20, Polysorbate-20]

- dissolution of surfactant in URAN 32 [4]: dissolved in URAN 32 readily
- Appearance ([3]; 27-4-0 76.6, surfactant 23.4 wt): Clear
Compound: CCCCC(CC)COS(=O)(=O)[O-].[Na+] (stereo not shown) [Witcolate D510, 2-ethylhexyl sulfate]

- surfactant in place of Witcolate D-510 to produce similar clothianidin suspensions [5]: suitable
Compound: C4-C6 phosphate ester with less than 7EO units (acid form)

- Appearance ([3]; 27-4-0 89.4, surfactant 10.6 wt): Clear
Compound: C810-3EO sulfate [C810-3EO sulfate (40%)]

- Appearance ([3]; 10-34-0 56.1, Water 30.7, surfactant 13.2 wt): Clear
- Appearance ([3]; 27-4-0 81.2, surfactant 18.8 wt): Clear
Compound: Sodium C810 sulfate [Sodium C810 sulfate (40%)]

- Appearance ([3]; 27-4-0 91.3, surfactant 8.7 wt): Clear
Compound: Sodium Laureth-2 sulfate [Witconate ES-2]
